Data from US12673961B2 (Agios Pharmaceuticals, Inc., priority 2022, dated 2026).

target: T1, human PAH with the R408W mutation (Homo sapiens, UniProt P00439, R408W); assay: Cell Based Phenylalanine Flux Assay; set-up: scale not given here; details: A375 cells expressing R408W PAH; 24 hrs with compound, then 20 μM sepiapterin and 800 μM 13C9,15N-Phenylalanine for 4 hours; 13C-Tyrosine in media by LC-MS; average where tested multiple times;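 further: Ten-point dose curve from 2-fold serial dilutions, run in duplicate at 0.5% DMSO final, tracer step used 20 µM sepiapterin and 800 µM labeled phenylalanine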
T1 construct: expressed in transfected cells
T1 sequence (P00439 1-452 R408W): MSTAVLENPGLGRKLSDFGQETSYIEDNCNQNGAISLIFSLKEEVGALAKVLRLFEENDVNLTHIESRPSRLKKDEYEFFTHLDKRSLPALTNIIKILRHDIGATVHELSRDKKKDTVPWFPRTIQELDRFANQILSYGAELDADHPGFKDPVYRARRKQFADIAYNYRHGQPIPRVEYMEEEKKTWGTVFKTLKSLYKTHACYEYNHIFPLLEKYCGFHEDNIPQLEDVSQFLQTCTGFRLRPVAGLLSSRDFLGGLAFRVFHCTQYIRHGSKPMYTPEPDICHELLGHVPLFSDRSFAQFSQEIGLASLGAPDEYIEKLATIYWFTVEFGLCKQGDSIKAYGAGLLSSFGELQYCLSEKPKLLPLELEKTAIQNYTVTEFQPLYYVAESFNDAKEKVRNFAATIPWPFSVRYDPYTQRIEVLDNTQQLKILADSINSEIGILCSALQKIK

COc1cccn2nc(C3c4nc[nH]c4CCN3C(=O)c3ccnn3C3CC3)cc12 (centres unmarked) was tested, and the AC50 was “E, E”.
For Cn1cnc(-c2nc(C(F)F)c(C(=O)N3CCc4[nH]cnc4C3c3cc4ccccn4n3)o2)c1 (centres unmarked), the AC50 was “E, E”.
For Cc1cccn2nc(C3c4nc[nH]c4CCN3C(=O)c3ocnc3C(F)(F)F)cc12 (centres unmarked) [listing 1 of 2 here], the AC50 was “E, E”.
With Cc1cccn2nc(C3c4nc[nH]c4CCN3C(=O)c3ccnn3C)cc12 (centres unmarked) the AC50 was “E, E”.
CC(C)c1cccn2nc(C3c4nc[nH]c4CCN3c3ncccn3)cc12 (centres unmarked) was tested, and the AC50 was “E, E”.
Cc1ccn2nc(C3c4nc[nH]c4CCN3C(=O)c3oc(C(C)(C)O)nc3C(F)F)cc2c1 (centres unmarked) was tested, and the AC50 was “E, E”.
In the case of CC(C)(O)c1nc(C(F)(F)F)c(C(=O)N2CCc3[nH]cnc3C2c2cc3c(Cl)cccn3n2)o1 (centres unmarked), the AC50 is reported as “E, E”.
With Cc1cccn2nc(C3c4nc[nH]c4CCN3C(=O)c3oc(C(C)(C)O)nc3C(F)(F)F)cc12 (centres unmarked) the AC50 was “E, E”.
In the case of FC(F)c1cccn2nc(C3c4nc[nH]c4CCN3c3nnc(-c4ccncn4)o3)cc12 (centres unmarked), the AC50 is reported as “E, E”.
O=C(c1ocnc1C(F)(F)F)N1CCc2[nH]cnc2C1c1cc2c(Cl)cccn2n1 (centres unmarked) was tested, and the AC50 was “E. E”.
For COc1cccn2nc(C3c4nc[nH]c4CCN3C(=O)c3ccnn3C)cc12 (centres unmarked), the AC50 was “E, E”.
In the case of COc1cccn2nc(C3c4nc[nH]c4CCN3C(=O)c3ncnn3C)cc12 (centres unmarked), the AC50 is reported as “E, E”.
In the case of COc1cccn2nc(C3c4nc[nH]c4CCN3C(=O)c3ccnn3C(C)C)cc12 (centres unmarked), the AC50 is reported as “E, E”.
For COc1cccn2nc(C3c4nc[nH]c4CCN3C(=O)c3ccnn3C(F)(F)F)cc12 (centres unmarked), the AC50 was “E, E”.
Cc1cccn2nc(C3c4nc[nH]c4CCN3C(=O)c3ccnn3C(C)C)cc12 (centres unmarked) was tested, and the AC50 was “E, E”.
With Cc1cccn2nc(C3c4nc[nH]c4CCN3C(=O)c3ccnn3C(F)(F)F)cc12 (centres unmarked) the AC50 was “E, E”.
In the case of Cc1cccn2nc(C3c4nc[nH]c4CCN3C(=O)c3ocnc3C(F)(F)F)cc12 (centres unmarked) [listing 2 of 2 here], the AC50 is reported as “E, E”.
FC(F)c1cccn2nc([C@H]3c4nc[nH]c4CCN3c3nnc(-c4ccncn4)o3)cc12 (single isomer, unassigned) was tested, and the AC50 was “E, E”.
Cc1cccn2nc(C3c4nc[nH]c4CCN3C(=O)c3ccnn3C(F)(F)F)cc12 (single isomer, unassigned) was tested, and the AC50 was “E, E”.
In the case of COc1cccn2nc([C@@H]3c4nc[nH]c4CCN3C(=O)c3ccnn3C3CC3)cc12 (single isomer, unassigned), the AC50 is reported as “E, E”.
With Cn1cnc(-c2nc(C(F)F)c(C(=O)N3CCc4[nH]cnc4[C@H]3c3cc4ccccn4n3)o2)c1 (single isomer, unassigned) the AC50 was “E, E”.

same assay, conditions: A375 cells expressing R408W PAH; 24 hrs with compound, then 20 μM sepiapterin and 800 μM 13C9,15N-Phenylalanine for 4 hours; 13C-Tyrosine in media by LC-MS; average where tested multiple times; read-out: AC50

COc1cccn2nc(C3c4nc[nH]c4CCN3C(=O)c3cc(C(C)(C)C)nn3C)cc12 (centres unmarked) and Cn1nc(C(C)(C)C)cc1C(=O)N1CCc2[nH]cnc2[C@@H]1c1cc2c(F)cccn2n1 (single isomer, unassigned) cannot be ordered by AC50: > 5 µM for the first, > 5 µM for the second.

N#Cc1ncoc1C(=O)N1CCc2[nH]cnc2C1c1nn2ccccc2c1Br (centres unmarked) and Cc1nnc(C(=O)N2CCc3[nH]cnc3C2c2nn3ccccc3c2C)o1 (single isomer, unassigned) fall in the same range of AC50: 1 to 5 µM for the first, 1 to 5 µM for the second.

First: Fc1ccc(-c2nnc(N3CCc4[nH]cnc4C3c3cc4ccccn4n3)o2)nc1 (centres unmarked)
Second: COc1cccn2nc([C@@H]3c4nc[nH]c4CCN3c3nnc(-c4ccccn4)o3)cc12 (single isomer, unassigned)
The AC50 of the first is higher: > 5 µM for the first, 1 to 5 µM for the second.

Cn1cc(N2CCc3[nH]cnc3C2c2cc3ccccn3n2)cn1 (centres unmarked) and Nc1cnc(N2CCc3[nH]cnc3[C@H]2c2cc3ccccn3n2)nc1 (single isomer, unassigned) cannot be ordered by AC50: > 5 µM for the first, > 5 µM for the second.

CC1(c2nnc(N3CCc4[nH]cnc4C3c3cc4ccccn4n3)o2)CC1 (centres unmarked) and c1ccn2nc(C3c4nc[nH]c4CCN3c3nnc(C4CC4)o3)cc2c1 (centres unmarked) fall in the same range of AC50: 1 to 5 µM for the first, 1 to 5 µM for the second.

O=C(c1nnc(-c2cc[nH]n2)o1)N1CCc2[nH]cnc2C1c1cc2ccccn2n1 (centres unmarked) and CN(C)c1nnc(C(=O)N2CCc3[nH]cnc3[C@H]2c2cc3ccccn3n2)o1 (single isomer, unassigned) fall in the same range of AC50: 1 to 5 µM for the first, 1 to 5 µM for the second.

CC(C)(F)c1nnc(C(=O)N2CCc3[nH]cnc3C2c2cc3cc(C(F)(F)F)ccn3n2)o1 (centres unmarked) and Cn1ccc(-c2nnc(C(=O)N3CCc4[nH]cnc4[C@H]3c3cc4cc(C(F)(F)F)ccn4n3)o2)n1 (single isomer, unassigned) fall in the same range of AC50: 1 to 5 µM for the first, 1 to 5 µM for the second.

O=C(c1nnc(C2CC(F)(F)C2)o1)N1CCc2[nH]cnc2C1c1cc2cccc(F)n2n1 (centres unmarked) and O=C(c1nnc(C2CC(F)(F)C2)o1)N1CCc2[nH]cnc2[C@H]1c1cc2cccc(C(F)F)n2n1 (single isomer, unassigned) fall in the same range of AC50: 1 to 5 µM for the first, 1 to 5 µM for the second.

O=C(c1nnc(-c2cn[nH]c2)o1)N1CCc2[nH]cnc2C1c1cc2c(F)cccn2n1 (centres unmarked) and COc1cccn2nc([C@@H]3c4nc[nH]c4CCN3C(=O)c3nnc(-c4cnn(C(F)(F)F)c4)o3)cc12 (single isomer, unassigned) fall in the same range of AC50: 1 to 5 µM for the first, 1 to 5 µM for the second.

First: Cc1nnc(C(=O)N2CCc3[nH]cnc3C2c2cc3ccc(F)cn3n2)o1 (centres unmarked)
Second: Cc1nnc(C(=O)N2CCc3[nH]cnc3[C@@H]2c2cc3cccc(C)n3n2)o1 (single isomer, unassigned)
The AC50 of the first is lower: 1 to 5 µM for the first, > 5 µM for the second.

Compared with Cc1nnc(C(=O)N2CCc3[nH]cnc3C2c2cc3cccc(C(F)F)n3n2)o1 (centres unmarked), Cn1cncc1-c1nnc(C(=O)N2CCc3[nH]cnc3[C@@H]2c2cc3cccc(C(F)F)n3n2)o1 (single isomer, unassigned) is higher in AC50: 1 to 5 µM for the first, > 5 µM for the second.

Nc1cnc(N2CCc3[nH]cnc3C2c2cc3cccc(C(F)F)n3n2)nc1 (centres unmarked) and Cc1nnc(N2CCc3[nH]cnc3[C@H]2c2cc3cccc(C(F)F)n3n2)o1 (single isomer, unassigned) cannot be ordered by AC50: > 5 µM for the first, > 5 µM for the second.

Cn1cnc(-c2nnc(C(=O)N3CCc4[nH]cnc4C3c3cc4cccc(C(F)F)n4n3)o2)c1 (centres unmarked) and Cn1cncc1-c1nnc(C(=O)N2CCc3[nH]cnc3[C@H]2c2cc3cccc(C(F)(F)F)n3n2)o1 (single isomer, unassigned) fall in the same range of AC50: 1 to 5 µM for the first, 1 to 5 µM for the second.

First: O=C(c1nnc(-c2ncccn2)o1)N1CCc2[nH]cnc2C1c1cc2c(C3CC3)cccn2n1 (centres unmarked)
Second: O=C(c1nnc(-c2ncccn2)o1)N1CCc2[nH]cnc2[C@H]1c1cc2c(OC(F)F)cccn2n1 (single isomer, unassigned)
The AC50 of the first is higher: > 5 µM for the first, 1 to 5 µM for the second.

COc1cccn2nc(C3c4nc[nH]c4CCN3C(=O)c3nnc(C(C)(C)O)o3)cc12 (centres unmarked) and Cc1c([C@@H]2c3nc[nH]c3CCN2C(=O)c2nnc(C(C)(C)O)o2)nn2ccccc12 (single isomer, unassigned) cannot be ordered by AC50: > 5 µM for the first, > 5 µM for the second.

COCc1ncc(C(=O)N2CCc3[nH]cnc3C2c2cc3ccccn3n2)o1 (centres unmarked) and COCc1ccc2c(C(=O)N3CCc4[nH]cnc4[C@H]3c3cc4ccccn4n3)cnn2c1 (single isomer, unassigned) fall in the same range of AC50: 1 to 5 µM for the first, 1 to 5 µM for the second.

Compared with COCc1ccc2c(C(=O)N3CCc4[nH]cnc4C3c3cc4cccc(F)n4n3)cnn2c1 (centres unmarked), Fc1cccc2cc([C@H]3c4nc[nH]c4CCN3c3ncccn3)nn12 (single isomer, unassigned) is higher in AC50: 1 to 5 µM for the first, > 5 µM for the second.

First: Cc1ccn2nc(C3c4nc[nH]c4CCN3C(=O)c3nnc(-c4cnn(C)c4)o3)cc2c1 (single isomer, unassigned)
Second: Cc1cccn2nc([C@@H]3c4nc[nH]c4CCN3c3nnc(-c4cnn(C)c4)o3)cc12 (single isomer, unassigned)
The AC50 of the first is higher: > 5 µM for the first, 1 to 5 µM for the second.

First: Cn1nc(C(F)F)cc1C(=O)N1CCc2[nH]cnc2[C@@H]1c1cc2ccccn2n1 (single isomer, unassigned)
Second: Cn1nc(C(F)F)nc1C(=O)N1CCc2[nH]cnc2[C@H]1c1cc2ccc(F)cn2n1 (single isomer, unassigned)
The AC50 of the first is higher: > 5 µM for the first, 1 to 5 µM for the second.

Compared with O=C(Cc1cnn2ccccc12)N1CCc2[nH]cnc2[C@H]1c1cc2ccccn2n1 (single isomer, unassigned), CC(C)(O)c1noc(C(=O)N2CCc3[nH]cnc3[C@H]2c2cc3ccccn3n2)n1 (single isomer, unassigned) is higher in AC50: 1 to 5 µM for the first, > 5 µM for the second.

Cn1cc(-c2nnc(N3CCc4[nH]cnc4[C@H]3c3cc4c(C(F)(F)F)cccn4n3)o2)cn1 (single isomer, unassigned) and Cc1cccn2nc([C@@H]3c4nc[nH]c4CCN3c3nnc(C(=O)N(C)C)o3)cc12 (single isomer, unassigned) fall in the same range of AC50: 1 to 5 µM for the first, 1 to 5 µM for the second.

Cc1nnc(C(=O)N2CCc3[nH]cnc3[C@H]2c2cc3c(OC(F)F)cccn3n2)o1 (single isomer, unassigned) and Cc1cccc2cc([C@@H]3c4nc[nH]c4CCN3C(=O)c3nnc(C(C)(C)O)o3)nn12 (single isomer, unassigned) fall in the same range of AC50: 1 to 5 µM for the first, 1 to 5 µM for the second.

Fc1cccc2cc([C@@H]3c4nc[nH]c4CCN3c3ncccn3)nn12 (single isomer, unassigned) and FC(F)(F)c1cccc2cc([C@@H]3c4nc[nH]c4CCN3c3nnc(C4CC4)o3)nn12 (single isomer, unassigned) fall in the same range of AC50: 1 to 5 µM for the first, 1 to 5 µM for the second.

c1ccn2nc(C3c4nc[nH]c4CCN3c3nnc(C4CCC4)o3)cc2c1 (single isomer, unassigned) and O=C(c1nnc(N2CCOCC2)o1)N1CCc2[nH]cnc2[C@H]1c1cc2ccccn2n1 (single isomer, unassigned) fall in the same range of AC50: 1 to 5 µM for the first, 1 to 5 µM for the second.

Cn1nc(C2CC2)nc1C(=O)N1CCc2[nH]cnc2C1c1cc2c(F)cccn2n1 (single isomer, unassigned) and Cc1nc([C@@H](C)O)oc1C(=O)N1CCc2[nH]cnc2[C@H]1c1cc2cccc(C)n2n1 (single isomer, unassigned) fall in the same range of AC50: 1 to 5 µM for the first, 1 to 5 µM for the second.
